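Protocol summary: plate cells (96-well), add compound at 5 concentrations, incubate 48 h, interpolate endpoints linearly. Abbreviation: GI50, concentration required for 50% inhibition of growth. TGI: concentration producing complete growth inhibition.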
Key:
Assay in all cases: growth of human tumour cells (NCI), 48 h
PC-3 prostate = test system: PC-3 prostate
HCT-15 colon = test system: HCT-15 colon
UACC-257 melanoma = test system: UACC-257 melanoma
U251 CNS = test system: U251 CNS
K-562 leukemia = test system: K-562 leukemia
SF-295 CNS = test system: SF-295 CNS
HT29 colon = test system: HT29 colon
NCI-H460 lung = test system: NCI-H460 lung
UACC-62 melanoma = test system: UACC-62 melanoma
NCI-H226 lung = test system: NCI-H226 lung

**Q.** `Cc1ccc(S(=O)(=O)Oc2ccc([N+](=O)[O-])cc2[N+](=O)[O-])cc1` was tested. Which GI50 (PC-3 prostate) did it give?
**A.** 5.15 µM

**Q.** What about the TGI (PC-3 prostate) of the same molecule?
**A.** 26.5 µM

**Q.** What about the GI50 (HCT-15 colon) of the same molecule?
**A.** 3.61 µM

**Q.** What about the TGI (HCT-15 colon) of the same molecule?
**A.** 17.9 µM

**Q.** And the GI50 (UACC-257 melanoma)?
**A.** 2.77 µM

**Q.** And the TGI (UACC-257 melanoma)?
**A.** 12.2 µM

**Q.** And the GI50 (U251 CNS)?
**A.** 3.83 µM

**Q.** What about the TGI (U251 CNS) of the same molecule?
**A.** 14.5 µM

**Q.** What about the GI50 (K-562 leukemia) of the same molecule?
**A.** 0.689 µM

**Q.** What about the TGI (K-562 leukemia) of the same molecule?
**A.** > 100 µM

**Q.** What about the GI50 (SF-295 CNS) of the same molecule?
**A.** 10.4 µM

**Q.** And the TGI (SF-295 CNS)?
**A.** 25.2 µM

**Q.** What about the GI50 (HT29 colon) of the same molecule?
**A.** 3.63 µM

**Q.** And the TGI (HT29 colon)?
**A.** 58.7 µM

**Q.** What about the GI50 (NCI-H460 lung) of the same molecule?
**A.** 15.4 µM

**Q.** What about the TGI (NCI-H460 lung) of the same molecule?
**A.** 39 µM

**Q.** What about the GI50 (UACC-62 melanoma) of the same molecule?
**A.** 12.4 µM

**Q.** What about the TGI (UACC-62 melanoma) of the same molecule?
**A.** 30.9 µM

**Q.** And the GI50 (NCI-H226 lung)?
**A.** 10.6 µM

**Q.** What about the TGI (NCI-H226 lung) of the same molecule?
**A.** 43.6 µM

**Q.** What does the source list for `NC(=O)/C(=C\c1ccncc1)c1cccc2ccccc12`?
**A.** TGI (PC-3 prostate): > 100 µM; TGI (HCT-15 colon): > 100 µM; TGI (UACC-257 melanoma): 8.49 µM; TGI (U251 CNS): > 100 µM; TGI (K-562 leukemia): > 100 µM; TGI (SF-295 CNS): > 100 µM; TGI (HT29 colon): > 100 µM; TGI (NCI-H460 lung): > 100 µM; TGI (UACC-62 melanoma): > 100 µM; TGI (NCI-H226 lung): 95.2 µM

**Q.** Which results are given for `NCCCCCCCCn1c2c(c3ccccc3c1=O)C(=O)c1ccccc1-2`?
**A.** GI50 (PC-3 prostate): 5.05 µM; TGI (PC-3 prostate): 23.3 µM; GI50 (HCT-15 colon): 3.26 µM; TGI (HCT-15 colon): 10.2 µM; GI50 (UACC-257 melanoma): 4.97 µM; TGI (UACC-257 melanoma): 20.6 µM; GI50 (U251 CNS): 13.4 µM; TGI (U251 CNS): 35.9 µM; GI50 (K-562 leukemia): 1.87 µM; TGI (K-562 leukemia): 3.67 µM; GI50 (SF-295 CNS): 2.57 µM; TGI (SF-295 CNS): 7.18 µM; GI50 (HT29 colon): 1.86 µM; TGI (HT29 colon): 4.02 µM; GI50 (NCI-H460 lung): 3.66 µM; TGI (NCI-H460 lung): 24.8 µM; GI50 (UACC-62 melanoma): 3.76 µM; TGI (UACC-62 melanoma): 14.1 µM; GI50 (NCI-H226 lung): 14 µM; TGI (NCI-H226 lung): 34.8 µM

**Q.** For `COc1ccccc1-c1cc(/C=C2\C(=O)Nc3ncc(Br)cc32)cc(Br)c1O`, which GI50 (PC-3 prostate) is on record?
**A.** 9.18 µM

**Q.** What about the TGI (PC-3 prostate) of the same molecule?
**A.** > 25 µM

**Q.** What about the GI50 (HCT-15 colon) of the same molecule?
**A.** 9.6 µM

**Q.** And the TGI (HCT-15 colon)?
**A.** > 25 µM

**Q.** What about the GI50 (UACC-257 melanoma) of the same molecule?
**A.** 16.4 µM

**Q.** What about the TGI (UACC-257 melanoma) of the same molecule?
**A.** > 25 µM

**Q.** And the GI50 (U251 CNS)?
**A.** 12.7 µM

**Q.** And the TGI (U251 CNS)?
**A.** > 25 µM

**Q.** And the GI50 (K-562 leukemia)?
**A.** 9.76 µM

**Q.** And the TGI (K-562 leukemia)?
**A.** > 25 µM

**Q.** What about the GI50 (SF-295 CNS) of the same molecule?
**A.** 10.5 µM

**Q.** And the TGI (SF-295 CNS)?
**A.** > 25 µM

**Q.** And the GI50 (HT29 colon)?
**A.** 18.9 µM

**Q.** And the TGI (HT29 colon)?
**A.** > 25 µM

**Q.** What about the GI50 (NCI-H460 lung) of the same molecule?
**A.** 11.6 µM

**Q.** And the TGI (NCI-H460 lung)?
**A.** > 25 µM

**Q.** What about the GI50 (UACC-62 melanoma) of the same molecule?
**A.** 6.91 µM

**Q.** What about the TGI (UACC-62 melanoma) of the same molecule?
**A.** > 25 µM

**Q.** What about the GI50 (NCI-H226 lung) of the same molecule?
**A.** 12.5 µM

**Q.** And the TGI (NCI-H226 lung)?
**A.** > 25 µM

**Q.** With `C=C(C)[C@@H]1CC[C@]2(C(N)=O)CC[C@]3(C)[C@H](CC[C@@H]4[C@@]5(C)CC[C@H](O)C(C)(C)[C@@H]5CC[C@]43C)[C@@H]12` as the molecule, how does the GI50 (PC-3 prostate) read?
**A.** 2.83 µM

**Q.** What about the TGI (PC-3 prostate) of the same molecule?
**A.** 14.7 µM

**Q.** What about the GI50 (HCT-15 colon) of the same molecule?
**A.** 3.28 µM

**Q.** And the TGI (HCT-15 colon)?
**A.** 12.3 µM

**Q.** What about the GI50 (UACC-257 melanoma) of the same molecule?
**A.** 13.2 µM

**Q.** And the TGI (UACC-257 melanoma)?
**A.** > 100 µM

**Q.** And the GI50 (U251 CNS)?
**A.** 2.54 µM

**Q.** And the TGI (U251 CNS)?
**A.** 7.16 µM

**Q.** What about the GI50 (K-562 leukemia) of the same molecule?
**A.** 3.04 µM

**Q.** And the TGI (K-562 leukemia)?
**A.** 19.4 µM

**Q.** What about the GI50 (SF-295 CNS) of the same molecule?
**A.** 3.39 µM

**Q.** And the TGI (SF-295 CNS)?
**A.** 24.8 µM

**Q.** And the GI50 (HT29 colon)?
**A.** 2.56 µM

**Q.** What about the TGI (HT29 colon) of the same molecule?
**A.** 7.42 µM

**Q.** And the GI50 (NCI-H460 lung)?
**A.** 2.12 µM

**Q.** And the TGI (NCI-H460 lung)?
**A.** 4.84 µM

**Q.** And the GI50 (UACC-62 melanoma)?
**A.** 4.2 µM

**Q.** What about the TGI (UACC-62 melanoma) of the same molecule?
**A.** 23.1 µM

**Q.** And the GI50 (NCI-H226 lung)?
**A.** 4.1 µM

**Q.** And the TGI (NCI-H226 lung)?
**A.** 17.8 µM

**Q.** Which results are given for `Nc1ccccc1SC(CC(=O)c1ccccc1)c1ccc([N+](=O)[O-])cc1` (stereo not given)?
**A.** GI50 (PC-3 prostate): 10.3 µM; TGI (PC-3 prostate): 22.4 µM; GI50 (HCT-15 colon): 8.51 µM; TGI (HCT-15 colon): 22.4 µM; GI50 (UACC-257 melanoma): 14.5 µM; TGI (UACC-257 melanoma): 27.8 µM; GI50 (U251 CNS): 4.51 µM; TGI (U251 CNS): 16.9 µM; GI50 (K-562 leukemia): 3.91 µM; TGI (K-562 leukemia): 14.8 µM; GI50 (SF-295 CNS): 16.1 µM; TGI (SF-295 CNS): 30 µM; GI50 (HT29 colon): 4.3 µM; TGI (HT29 colon): 14.6 µM; GI50 (NCI-H460 lung): 17.3 µM; TGI (NCI-H460 lung): 36 µM; GI50 (UACC-62 melanoma): 12.1 µM; TGI (UACC-62 melanoma): 24.5 µM; GI50 (NCI-H226 lung): 18 µM; TGI (NCI-H226 lung): 36.3 µM

**Q.** With `CCNCCC1(CC)C(=O)NC(=O)NC1=O` as the molecule, how does the TGI (PC-3 prostate) read?
**A.** > 100 µM

**Q.** What about the TGI (HCT-15 colon) of the same molecule?
**A.** > 100 µM

**Q.** What about the TGI (UACC-257 melanoma) of the same molecule?
**A.** > 100 µM

**Q.** What about the TGI (U251 CNS) of the same molecule?
**A.** > 100 µM

**Q.** What about the TGI (K-562 leukemia) of the same molecule?
**A.** > 100 µM

**Q.** And the TGI (SF-295 CNS)?
**A.** > 100 µM

**Q.** And the TGI (HT29 colon)?
**A.** > 100 µM

**Q.** And the TGI (NCI-H460 lung)?
**A.** > 100 µM

**Q.** And the TGI (UACC-62 melanoma)?
**A.** > 100 µM

**Q.** And the TGI (NCI-H226 lung)?
**A.** > 100 µM

**Q.** With `COc1c2ccoc2cc2oc(=O)ccc12` as the molecule, how does the TGI (PC-3 prostate) read?
**A.** > 100 µM

**Q.** And the TGI (HCT-15 colon)?
**A.** > 100 µM

**Q.** And the TGI (UACC-257 melanoma)?
**A.** > 100 µM

**Q.** What about the TGI (U251 CNS) of the same molecule?
**A.** > 100 µM

**Q.** And the TGI (K-562 leukemia)?
**A.** > 100 µM

**Q.** What about the TGI (SF-295 CNS) of the same molecule?
**A.** > 100 µM

**Q.** What about the TGI (HT29 colon) of the same molecule?
**A.** > 100 µM

**Q.** What about the TGI (NCI-H460 lung) of the same molecule?
**A.** > 100 µM

**Q.** And the TGI (UACC-62 melanoma)?
**A.** > 100 µM

**Q.** What about the TGI (NCI-H226 lung) of the same molecule?
**A.** > 100 µM

**Q.** `O=c1[nH]cc(/C=N\Nc2ccccc2)c(=O)[nH]1` was tested. Which TGI (PC-3 prostate) did it give?
**A.** > 100 µM

**Q.** What about the TGI (HCT-15 colon) of the same molecule?
**A.** > 100 µM

**Q.** What about the TGI (UACC-257 melanoma) of the same molecule?
**A.** > 100 µM

**Q.** And the TGI (U251 CNS)?
**A.** > 100 µM

**Q.** And the TGI (K-562 leukemia)?
**A.** > 100 µM

**Q.** And the TGI (SF-295 CNS)?
**A.** > 100 µM

**Q.** What about the TGI (HT29 colon) of the same molecule?
**A.** > 100 µM

**Q.** What about the TGI (NCI-H460 lung) of the same molecule?
**A.** > 100 µM

**Q.** And the TGI (UACC-62 melanoma)?
**A.** > 100 µM

**Q.** What about the TGI (NCI-H226 lung) of the same molecule?
**A.** > 100 µM

Reference: PubChem BioAssay (NCI)
